Measurements published in ChEMBL document CHEMBL4725310, “Orally bioavailable HCV NS5A inhibitors of unsymmetrical structural class” (Bioorg Med Chem Lett, 2020).
Converted amounts (≈) assume the structure as drawn.

Key:
[1] = Apparent permeability of compound in human Caco-2 cells; assay type: ADME, cell-based
[2] = target: T1, Nonstructural protein 5A (Hepatitis C virus, UniProt Q5L478); assay: Inhibition of Hepatitis C virus 1b NS5A; design: species or system Hepatitis C virus subtype 1b
T1 sequence (Q5L478 whole entry): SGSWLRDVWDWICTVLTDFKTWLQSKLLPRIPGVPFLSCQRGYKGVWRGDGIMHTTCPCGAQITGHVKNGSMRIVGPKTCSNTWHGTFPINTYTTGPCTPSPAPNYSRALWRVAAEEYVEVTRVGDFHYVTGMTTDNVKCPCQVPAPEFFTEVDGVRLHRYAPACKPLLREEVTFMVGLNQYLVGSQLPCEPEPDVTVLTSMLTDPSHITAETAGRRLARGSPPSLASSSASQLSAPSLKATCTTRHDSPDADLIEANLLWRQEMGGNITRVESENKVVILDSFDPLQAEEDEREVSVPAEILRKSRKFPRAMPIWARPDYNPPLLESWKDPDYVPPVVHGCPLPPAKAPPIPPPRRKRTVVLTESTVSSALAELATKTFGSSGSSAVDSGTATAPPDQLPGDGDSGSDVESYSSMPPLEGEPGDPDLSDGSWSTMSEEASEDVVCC

[3] = Solubility of compound in JP 1st fluid at pH 1.2; assay type: physicochemical
[4] = target: T1, Nonstructural protein 5A; assay: Inhibition of Hepatitis C virus 1a NS5A; design: species or system Hepatitis C virus subtype 1a
[5] = target: T1, Nonstructural protein 5A; assay: Inhibition of Hepatitis C virus 3a NS5A; design: species or system Hepatitis C virus subtype 3a
[6] = target: T1, Nonstructural protein 5A; assay: Inhibition of Hepatitis C virus 2a NS5A; design: species or system Hepatitis C virus subtype 2a
[7] = Inhibition of Hepatitis C virus 1a NS5A Q30K mutant; design: species or system Hepatitis C virus subtype 1a
[8] = Oral bioavailability in Sprague-Dawley rat at 3 mg/kg; assay type: ADME, organism-based; details: in vivo
[9] = target: Nonstructural protein 5A (Hepatitis C virus, UniProt Q5L478, Q30E); assay: Inhibition of Hepatitis C virus 1a NS5A Q30E mutant; design: species or system Hepatitis C virus subtype 1a
[10] = target: T1, Nonstructural protein 5A; assay: Inhibition of Hepatitis C virus 1a NS5A Q30R mutant; design: species or system Hepatitis C virus subtype 1a
[11] = target: T1, Nonstructural protein 5A; assay: Inhibition of Hepatitis C virus 1a H77 NS5A; design: species or system Hepatitis C virus subtype 1a

SMILES	Papp [1] [×10⁻⁶ cm/s]	EC50 [2] [nM]	solubility [3] [µM]	EC50 [4] [nM]	EC50 [5] [nM]	EC50 [6] [nM]	EC50 [7] [nM]	bioavailability [8] [%]	EC50 [9] [nM]	EC50 [10] [nM]	EC50 [11] [nM]
COC1CCC(C(=O)N[C@H]2CC[C@H](c3ccc(-c4c[nH]c([C@@H]5CCCN5C(=O)[C@H](NC(=O)N5CC[C@@H](NC(=O)OCC6CCCCC6)C5)c5ccccc5)n4)cc3)CC2)CC1 (stereo not given in full)	0.23	0.016	108 (≈ 90.3 µg/mL)	0.039	–	–	–	–	–	–	–
CC(C)(C)C#CCOC(=O)N[C@@H]1CCN(C(=O)N[C@@H](C(=O)N2CCC[C@H]2c2nc(-c3ccc([C@H]4CC[C@H](NC(=O)c5cnc(CO)cn5)CC4)cc3)c[nH]2)c2ccccc2)C1	1	0.013	132 (≈ 110 µg/mL)	0.059	< 0.01	< 0.01	17	32	15	0.18	–
CC#CCCOC(=O)N[C@@H]1CCN(C(=O)N[C@@H](C(=O)N2CCC[C@H]2c2nc(-c3ccc([C@H]4CC[C@H](NC(=O)c5cnccn5)CC4)cc3)c[nH]2)c2ccccc2)C1	2.1	< 0.01	352 (≈ 272 µg/mL)	3.4	–	–	–	–	–	–	–
CCCCCOC(=O)N[C@@H]1CCN(C(=O)N[C@@H](C(=O)N2CCC[C@H]2c2nc(-c3ccc([C@H]4CC[C@H](NC(=O)c5cnccn5)CC4)cc3)c[nH]2)c2ccccc2)C1	3	0.0056	197 (≈ 153 µg/mL)	0.97	–	–	–	11	–	–	–
CCCC#CCOC(=O)N[C@@H]1CCN(C(=O)N[C@@H](C(=O)N2CCC[C@H]2c2nc(-c3ccc([C@H]4CC[C@H](NC(=O)c5cnccn5)CC4)cc3)c[nH]2)c2ccccc2)C1	1.7	0.013	135 (≈ 106 µg/mL)	0.27	–	–	–	–	–	–	–
CC(C)(C)C#CCOC(=O)N[C@@H]1CCN(C(=O)N[C@@H](C(=O)N2CCC[C@H]2c2nc(-c3ccc([C@H]4CC[C@H](NC(=O)c5cnccn5)CC4)cc3)c[nH]2)c2ccccc2)C1	1.1	< 0.01	142 (≈ 114 µg/mL)	0.13	–	–	–	5.3	–	–	–
CC(C)C#CCOC(=O)N[C@@H]1CCN(C(=O)N[C@@H](C(=O)N2CCC[C@H]2c2nc(-c3ccc([C@H]4CC[C@H](NC(=O)c5cnc(CO)cn5)CC4)cc3)c[nH]2)c2ccccc2)C1	1.4	0.017	190 (≈ 155 µg/mL)	0.12	–	–	–	18	–	–	–
COC(=O)N[C@H](C(=O)N1CCC[C@H]1c1ncc(-c2ccc(-c3ccc(-c4cnc([C@@H]5CCCN5C(=O)[C@@H](NC(=O)OC)C(C)C)[nH]4)cc3)cc2)[nH]1)C(C)C [DACLATASVIR]	–	–	–	–	0.146	0.071	1230	–	1260	61	0.05
O=C(N[C@@H]1CCN(C(=O)N[C@@H](C(=O)N2CCC[C@H]2c2nc(-c3ccc([C@H]4CC[C@H](NC(=O)c5cnccn5)CC4)cc3)c[nH]2)c2ccccc2)C1)OCC1CCCCC1	0.85	0.0065	76 (≈ 61 µg/mL)	0.35	–	–	–	4.9	–	–	–
COC1CCC(C(=O)N[C@H]2CC[C@H](c3ccc(-c4c[nH]c([C@@H]5CCCN5C(=O)[C@H](NC(=O)N5CC[C@@H](NC(=O)OCc6ccccc6)C5)c5ccccc5)n4)cc3)CC2)CC1 (stereo not given in full)	< 0.1	0.019	193 (≈ 160 µg/mL)	0.17	–	–	–	1.4	–	–	–
CCC#CCOC(=O)N[C@@H]1CCN(C(=O)N[C@@H](C(=O)N2CCC[C@H]2c2nc(-c3ccc([C@H]4CC[C@H](NC(=O)c5cnccn5)CC4)cc3)c[nH]2)c2ccccc2)C1	3.1	0.018	336 (≈ 259 µg/mL)	0.39	–	–	–	–	–	–	–
CC#CCOC(=O)N[C@@H]1CCN(C(=O)N[C@@H](C(=O)N2CCC[C@H]2c2nc(-c3ccc([C@H]4CC[C@H](NC(=O)c5cnccn5)CC4)cc3)c[nH]2)c2ccccc2)C1	2.1	0.028	462 (≈ 350 µg/mL)	2.1	–	–	–	–	–	–	–
CC(C)C#CCOC(=O)N[C@@H]1CCN(C(=O)N[C@@H](C(=O)N2CCC[C@H]2c2nc(-c3ccc([C@H]4CC[C@H](NC(=O)c5cnccn5)CC4)cc3)c[nH]2)c2ccccc2)C1	1.6	< 0.01	246 (≈ 193 µg/mL)	0.18	–	–	–	10	–	–	–
COC1CCN(C(=O)N[C@H]2CC[C@H](c3ccc(-c4c[nH]c([C@@H]5CCCN5C(=O)[C@H](NC(=O)N5CC[C@@H](NC(=O)OCc6ccccc6)C5)c5ccccc5)n4)cc3)CC2)CC1	< 0.1	0.041	222 (≈ 184 µg/mL)	0.15	–	–	–	–	–	–	–
